In patent US20250084056A1, “SUBSTITUTED OXOISOINDOLINYL PIPERIDINE-2,6-DIONE COMPOUNDS” (BRISTOL-MYERS SQUIBB COMPANY, priority 2023, published 2025):

Assays:
Type in all cases: cell-based
Phospho-Rb (Ser807/811) = assay: Phospho-Retinoblastoma (pRB) Cellular Assay; settings: Homo sapiens, OVCAR-3, NIH OVCAR3 cells, 24 hours; for IC50: concentration giving 50% response; for Emax: maximum response, reference compound at 10 μM = 100%, read-out: pRB Ymax
Summary of the method: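 OVCAR3 cells seeded overnight, then dosed with serial dilutions for 24 h at 37° C. Lysed with kit mix plus phosphatase inhibitor, ≥4 h at room temperature, read on EnVision; 100% response set by reference compound at 10 μM, giving IC50 and Ymax.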

GSPT1 = GSPT1 (Homo sapiens, UniProt P15170+Q96SW2); assay: GSPT1 Cellular Degradation Assay (DF15-GSPT1-ePL); design: expressed in transfected cells; settings: DF15-GSPT1-ePL cells, 20 hours
Sequence of GSPT1 (P15170 whole entry, the tested form may be a part): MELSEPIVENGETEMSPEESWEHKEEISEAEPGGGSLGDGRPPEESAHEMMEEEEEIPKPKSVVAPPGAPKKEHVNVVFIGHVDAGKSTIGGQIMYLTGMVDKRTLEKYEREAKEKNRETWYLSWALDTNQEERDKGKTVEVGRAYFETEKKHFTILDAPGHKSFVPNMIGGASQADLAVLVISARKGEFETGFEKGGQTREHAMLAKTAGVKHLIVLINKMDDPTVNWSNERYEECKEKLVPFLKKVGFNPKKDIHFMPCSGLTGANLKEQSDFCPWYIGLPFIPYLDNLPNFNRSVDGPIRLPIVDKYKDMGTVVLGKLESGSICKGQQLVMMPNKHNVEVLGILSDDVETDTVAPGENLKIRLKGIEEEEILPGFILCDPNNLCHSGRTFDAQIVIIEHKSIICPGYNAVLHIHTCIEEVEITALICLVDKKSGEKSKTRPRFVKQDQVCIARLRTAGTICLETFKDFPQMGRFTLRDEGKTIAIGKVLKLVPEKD
Sequence of GSPT1 (Q96SW2 whole entry, the tested form may be a part): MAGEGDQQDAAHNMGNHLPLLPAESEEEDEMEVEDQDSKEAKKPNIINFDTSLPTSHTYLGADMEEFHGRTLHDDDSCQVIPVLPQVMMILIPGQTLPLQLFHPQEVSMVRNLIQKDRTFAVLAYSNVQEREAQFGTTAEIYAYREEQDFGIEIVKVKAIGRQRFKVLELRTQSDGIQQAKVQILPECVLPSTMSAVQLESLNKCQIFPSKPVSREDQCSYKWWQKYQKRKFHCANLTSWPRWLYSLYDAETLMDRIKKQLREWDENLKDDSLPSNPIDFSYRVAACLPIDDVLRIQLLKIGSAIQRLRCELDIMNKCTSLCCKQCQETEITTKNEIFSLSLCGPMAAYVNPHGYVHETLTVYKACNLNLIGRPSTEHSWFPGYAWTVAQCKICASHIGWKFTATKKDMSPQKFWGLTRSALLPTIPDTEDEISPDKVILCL
Sequence of GSPT1 (Q16531 whole entry partner, the tested form may be a part): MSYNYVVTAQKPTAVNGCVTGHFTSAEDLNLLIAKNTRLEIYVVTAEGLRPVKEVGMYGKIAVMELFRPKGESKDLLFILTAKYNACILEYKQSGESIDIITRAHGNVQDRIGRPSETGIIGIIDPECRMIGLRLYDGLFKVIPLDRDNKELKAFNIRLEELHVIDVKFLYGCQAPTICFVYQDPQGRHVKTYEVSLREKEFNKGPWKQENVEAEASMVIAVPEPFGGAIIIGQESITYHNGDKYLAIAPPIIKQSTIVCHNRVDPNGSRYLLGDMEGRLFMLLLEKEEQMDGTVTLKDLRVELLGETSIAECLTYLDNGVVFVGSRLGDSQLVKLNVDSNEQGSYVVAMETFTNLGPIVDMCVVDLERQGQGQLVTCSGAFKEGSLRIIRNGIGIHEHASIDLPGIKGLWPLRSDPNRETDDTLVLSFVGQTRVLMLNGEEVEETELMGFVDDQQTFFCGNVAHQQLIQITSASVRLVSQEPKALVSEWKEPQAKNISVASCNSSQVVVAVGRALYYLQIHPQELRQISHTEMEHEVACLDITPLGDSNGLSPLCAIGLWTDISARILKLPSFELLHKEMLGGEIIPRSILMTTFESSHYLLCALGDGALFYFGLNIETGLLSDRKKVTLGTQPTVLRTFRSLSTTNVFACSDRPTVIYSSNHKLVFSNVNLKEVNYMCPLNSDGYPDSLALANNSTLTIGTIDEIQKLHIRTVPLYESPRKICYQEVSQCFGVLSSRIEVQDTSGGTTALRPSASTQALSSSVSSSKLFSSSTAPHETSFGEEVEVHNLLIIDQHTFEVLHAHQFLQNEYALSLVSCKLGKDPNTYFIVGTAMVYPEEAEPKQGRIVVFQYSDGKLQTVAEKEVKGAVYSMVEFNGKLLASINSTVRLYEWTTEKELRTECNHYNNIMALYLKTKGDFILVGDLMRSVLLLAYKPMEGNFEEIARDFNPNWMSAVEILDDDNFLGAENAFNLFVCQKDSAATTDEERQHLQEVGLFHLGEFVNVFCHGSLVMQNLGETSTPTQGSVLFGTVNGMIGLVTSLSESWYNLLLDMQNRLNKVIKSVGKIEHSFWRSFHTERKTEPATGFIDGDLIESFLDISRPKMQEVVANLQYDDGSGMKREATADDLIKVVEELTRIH
Summary of the method: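 Human DF15 cells co-expressing a GSPT1–ePL fusion were treated with compound in RPMI 1640/10% FBS for 20 h at 37 °C. GSPT1 level was read by enzyme-fragment-complementation luminescence after 60 min with detection reagent. The reference degrader at […] defined 75% response; DC50 and Dmax were reported.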

Cyclin E1 = Cyclin E1 (Homo sapiens, UniProt P24864+Q96SW2); assay: Cyclin E1 Cellular Degradation Assay (MSD); design: endogenous in cells; host or cells: OVCAR3; settings: for DC50 / Dmax: Cyclin E1 cellular degradation; for Dmax: maximum degradation; for Ratio of GSPT1 DC50/Cyclin E1 DC50: selectivity for degradation of Cyclin E1 over GSPT1
Sequence of Cyclin E1 (P24864 whole entry): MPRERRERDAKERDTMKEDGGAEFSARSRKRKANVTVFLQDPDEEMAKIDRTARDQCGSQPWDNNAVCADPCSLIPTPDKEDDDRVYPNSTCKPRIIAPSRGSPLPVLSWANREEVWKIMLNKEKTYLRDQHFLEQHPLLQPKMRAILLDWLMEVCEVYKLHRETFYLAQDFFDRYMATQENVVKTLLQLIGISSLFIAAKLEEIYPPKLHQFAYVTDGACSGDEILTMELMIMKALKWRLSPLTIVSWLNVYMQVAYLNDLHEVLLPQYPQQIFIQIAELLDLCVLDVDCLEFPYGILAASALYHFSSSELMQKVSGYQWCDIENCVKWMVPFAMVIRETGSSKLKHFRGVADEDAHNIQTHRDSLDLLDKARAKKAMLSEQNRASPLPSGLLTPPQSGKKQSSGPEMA
Sequence of Cyclin E1 (Q96SW2 whole entry): as the sequence (Q96SW2 whole entry, the tested form may be a part) above
Sequence of Cyclin E1 (Q16531 whole entry partner): as the sequence (Q16531 whole entry partner, the tested form may be a part) above
Summary of the method: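 OVCAR3 cells treated with compound for 24 h at 37 °C, lysed, and cyclin E1 measured by MSD sandwich immunoassay (rabbit capture, mouse detection anti-CCNE1). Reference degrader at […] defined 110% response; DC50 and Dmax derived from response.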

IC50 (Phospho-Rb (Ser807/811))	DC50 (GSPT1)	Dmax (GSPT1)	DC50 (Cyclin E1)	Dmax (Cyclin E1)	Ratio of GSPT1 DC50/Cyclin E1 DC50 (Cyclin E1)	Structure (SMILES)	Emax (Phospho-Rb (Ser807/811))
40 nM	> 14000 nM	9%	53 nM	107%	>263	CC(C)Oc1c(COC(=O)Nc2ccc(Oc3ccccc3F)cc2)ccc2c1C(=O)N(C1CCC(=O)NC1=O)C2 (stereo not shown) [Example 121, [2-(2,6-dioxopiperidin-3-yl)-3-oxo-4-(propan-2-yloxy)-2,3-dihydro-1H-isoindol-5-yl]methyl N-[4-(2-fluorophenoxy)phenyl]carbamate]	125%
624 nM	> 14000 nM	22%	58 nM	116%	>241	CCOc1c(COC(=O)Nc2ccc(Oc3cccc(Cl)c3)cc2)ccc2c1C(=O)N(C1CCC(=O)NC1=O)C2 (stereo not shown) [Example 54, [2-(2,6-dioxopiperidin-3-yl)-4-ethoxy-3-oxo-2,3-dihydro-1H-isoindol-5-yl]methyl N-[4-(3-chlorophenoxy)phenyl]carbamate]	102%
3 nM	> 14000 nM	33%	299 nM	118%	>47	COc1c(COC(=O)Nc2ccc(Oc3ccc(F)cc3F)cc2)ccc2c1C(=O)N(C1CCC(=O)NC1=O)C2 (stereo not shown) [Example 5, [2-(2,6-dioxopiperidin-3-yl)-4-methoxy-3-oxo-2,3-dihydro-1H-isoindol-5-yl]methyl N-[4-(2,4-difluorophenoxy)phenyl]carbamate]	131%
128 nM	> 14000 nM	9%	41 nM	108%	>339	COc1c(COC(=O)Nc2ccc(Oc3cc(F)c(F)c(F)c3)cc2C)ccc2c1C(=O)N(C1CCC(=O)NC1=O)C2 (stereo not shown) [Example 40, [2-(2,6-dioxopiperidin-3-yl)-4-methoxy-3-oxo-2,3-dihydro-1H-isoindol-5-yl]methyl N-[2-methyl-4-(3,4,5-trifluorophenoxy)phenyl]carbamate]	110%
